# Test results: patent US7265091B2, “Methods and compositions for treating male erectile dysfunction” (The Regents of the University of California, priority 2000, dated 2007)
# Read-outs that look alike come from different tables or passages of the source.
# Legend:
# [1] = tested on: Rat Model of Traumatic Arteriogenic Erectile Dysfunction
# From the text: Bipolar platinum-wire electrodes were used to stimulate the cavernous nerve. The exposed end of the electrodes were hooked around the nerve to be stimulated, with the positive electrode being positioned proximally and the negative electrode two to three mm distally. Stimulus parameters were 1.5 volts, frequency of 20 pulses per second, pulse width of 0.2 msec, and the duration of 50 seconds. Intracavernous pressure was monitored and recorded by inserting a number 23 scalp vein needle to one of the crura and connected to a pressure monitor.
# [2] = tested on: dorsal nerve, intracavernosal smooth muscle and endothelium; conditions: ligated rats, 4 μg of VEGF
# Experimental: The penis was dissected, thinly sliced (˜1 mm thick) and placed in Karnovsky's fixative (1% para-formaldehyde/3% glutaraldehyde/0.1 M sodium cacodylate buffer, pH 7.4) at room temperature for 30 minutes and then stored at 4° C. The fixed tissue was then rinsed in buffer, post-fixed in 2% aqueous OsO4, and stained en bloc with uranyl acetate before being dehydrated in ethanol, cleared in propyline oxide, and embedded in eponate 12 (Ted Pella Co., Redding, Calif.). Thick sections were cut and stained with toludine blue, examined under light microscope to select the area to be thin-sectioned. Thin sections were cut by Leica ultracut E microtome (Bannockburn, Ill.), stained with uranyl acetate and Reynold's Lead to enhance contrast and examined under Philips Tecnai 10 electron microscope (Eidhoven, Netherlands).
# [3] = tested on: penile smooth muscle (alpha actin); assay: Alpha-smooth muscle actin immunohistochemistry of rat penis with image analysis; type: in vivo; conditions: castrated rats
# Experimental: Frozen sections were cut at 10 microns, adhered to charged slides, air dried for 15 minutes then rehydrated with 0.05M PBS for 5 minutes. […] The serum solution was drained and then sections were incubated for 60 minutes with mouse monoclonal anti-alpha-smooth muscle actin (Sigma, St. Louis, Mo.) at a dilution of 1:4000 in PBS. […] Immunochemistry was performed in penile tissues from 4 rats randomly chosen from each subgroup.
# Cross-sectional micrographs of the rat penis at the proximal shaft were examined after immunohistochemistry for alpha actin. Alpha actin, a marker for penile smooth muscle, stains brown and can be seen surrounding the sinusoidal spaces. […] Computerized image analysis with Adobe Photoshop was used to quantify the area of immunostaining by counting the number of digitized pixels corresponding to the area of brown staining, thereby providing some numerical comparison of the quantity of smooth muscle in each specimen.
# [4] = tested on: dorsal nerve, intracavernous smooth muscle cells and endothelial cells; assay: Transmission electron microscopy of penile tissue (Example 2); type: in vivo, rat
# From the text: Thick sections were cut and stained with toluidine blue to select specific areas for thin sectioning. Thin sections were cut, stained with both uranyl acetate and Reynold's Lead, and examined under the Phillips Tecnai 10 transmission electron microscope. Penile tissues from 4 randomly chosen rats in each subgroups were subjected to electron microscopic examinations.
# [5] = tested on: major pelvic ganglia (MPG); assay: Nerve fiber outgrowth from cultured major pelvic ganglia; type: cell-based, rat; design: Average fiber length / FIBER LENGTH (average lengths of the growing fibers): unit not given here
# Experimental: Each freshly isolated MPG was cut into 8 pieces of approximately equal size and each piece was then attached to a Matrigel-coated coverslip. The MPG pieces were cultured in serum-free medium supplemented with phosphate-buffered saline (PBS, control), 50 ng/ml of vascular endothelial growth factor (VEGF), 20 ng/ml of brain-derived neurotrophic factor (BDNF), or VEGF+BDNF. After 2 days of incubation, the ganglial tissues with their outgrowing nerve fibers were stained for the expression of NADPH diaphorase and acetylcholinesterase (AchE).
# We have been using several experimental systems to test the efficacy of combination growth factor therapies for impotence. One system employs cultured rat major pelvic ganglia (MPG) that are known to innervate all urogenital organs, including the penis. We discovered that the cultured MPG are able to sprout new nerve fibers (nerve regeneration) from the axonal ends during the first 3 days of culture, especially when treated with VEGF, BDNF, NT-3, or NT-4.
# [6] = tested on: cavernous nerve injury in rats; assay: Maximal intracavernous pressure after bilateral cavernous nerve freezing (Example 9, VENT); type: in vivo, rat; conditions: 3 months after bilateral cavernous nerve freezing, intracavernous injection
# Experimental: Three months old Sprague-Dawley rats (N=30) were used: 6 underwent a sham operation; 24 underwent bilateral cavernous nerve freezing and then randomly divided into four groups of 6 each. The four groups of rats received intracavernous injection of one of the following: 1) phosphate buffered saline (PBS), 2) VEGF protein (4 μg), 3) adeno-associated virus (AAV)-BDNF, and 4). VEGF+AAV-BDNF. Erectile function was assessed by cavernous nerve electrostimulation 3 months later and samples of penile tissue were obtained for electron microscopy and immunohistochemical studies.
# [7] = tested on: outgrowing blood vessels in artery-muscle co-culture; assay: Artery-muscle co-culture; type: cell-based
# From the text: We extended our above angiogenesis model to include muscles in a co-culture system. The source of muscle was corpus cavernosum, urethra sphincter, or bladder. […] In addition, the combination of VEGF and PDGF encouraged more extensive contacts between the outgrowing vessels with the muscle. More studies with either single or a combination of other growth factors and the molecular mechanism of vessel growth are currently underway. Once the best growth factor or combinations are identified, we will perform in vivo studies in rats with severe vasculogenic ED to see if the in vitro assay helps identify the best angiogenins.
# [8] = tested on: VSMC (aorta SMC); conditions: VSMC from 16-weeks-old rats
# Experimental: Each primary culture of CSMC was prepared from the corpora cavernosa of 2-3 rats by the following procedure. The penis was cleared of the urethra, blood vessels, fat and connective tissue. The remaining smooth muscle tissue was washed 3 times in sterile PBS (phosphate-buffered saline) and cut into 2-3 mm^3 segments. The segments were placed evenly onto a 100-mm cell culture dish (Falcon-Becton Dickinson Labware, Franklin Lakes, N.J.) inside a cell culture hood. Approximately 10 min later, 10 ml of Dulbecco's Modified Eagle Medium (DMEM) containing penicillin (100 units/ml), streptomycin (100 μg/ml), and 10% FBS was carefully pipetted into the dish. The dish was then kept undisturbed in a humidified 37° C. incubator with 5% CO2. Five days later, tissue segments that have detached from the dish were removed, and the medium was replaced with fresh medium. Another 5 days later, all tissue segments were removed and the medium was again replaced with fresh medium. When small islands of cells were noticeable, they were trypsinized and transferred to a fresh culture dish. […]
# Cell proliferation assays were performed with the CellTiter-96 kit from Promega Inc. (Madison, Wis.). […] After 4 hr of further incubation at 37° C. in the humidified, 5% CO2 incubator, color development, which reflects cell numbers, was recorded with a plate reader (Molecular Devices Corp., Sunnyvale, Calif.) at 490-nm absorbance. […]
# [9] = tested on: VSMC (aorta SMC); conditions: VSMC from 16-weeks-old rats; remark: listed apart in the source
# Experimental: Primary aorta SMC cultures were prepared similarly with aortas isolated from 16-week-old male rats.
# Cell migration assays were performed in 6.5-mm Transwell chambers of Corning Costar Corporation (Cambridge, Mass.). The Transwell inserts (upper chambers) were bathed in a solution containing 13.4 μg/ml fibronectin in PBS at 37° C. for 1 hr and allowed to air-dry. The dried upper chambers were then placed in the lower chambers, each of which contained 700 μl of serum-free DMEM supplemented with 0.1% BSA and 0 to 500 ng/ml of VEGF. SMC that had been grown to 70% confluence were further conditioned in serum-free DMEM (containing 0.1% BSA) for 2 hr and then trypsinized. The trypsinized cells were washed in PBS and resuspended at a concentration of 80,000 cells per ml in serum-free DMEM (containing 0.1% BSA). One hundred μl of the cell suspension was then added to each upper chamber. After 4 hr of incubation at 37° C., all liquid in the upper and lower chambers was removed by aspiration. The membranes in the upper chambers were subsequently fixed in 1% buffered formalin for 5 min and stained with 2% crystal violet. Non-migratory cells on the upper side of the membranes were scraped off with cotton swabs. Well locations were marked on the membranes and total cells per well were counted visually in a masked fashion. Well locations were then correlated with the concentrations of VEGF in the wells. […]
# [10] = tested on: Rodent Model of Neurogenic Erectile Dysfunction; conditions: VEGF 4 ug intracavernous, three months after bilateral cavernous nerve freezing
# Experimental: Seventeen 3 months old Sprague Dowry rats underwent bilateral freezing of the cavernous nerves with a thermocouple immersed in liquid nitrogen. Through an abdominal incision both cavernous nerves were isolated lateral to the prostate and frozen with thermocouple for one minute twice (temperature cycle −130° C. to −3° C.). Minutes later, intracavernous injection of saline (n=7) or VEGF, 4 ug, (n=9) was given. Three months later, all rats underwent re-exploration and electrostimulation of the cavernous nerves to assess erectile function. Eight additional rats underwent exploration only (sham group)
# [11] = tested on: Penile dorsal arteries; conditions: serum-free medium, 3 days
# Experimental: Penile dorsal arteries were isolated from rats and cut into 1-mm segments under a 10× microscope. Each segment was attached to a Matrigel-coated coverslip, which was then put in a 60-mm culture dish. Serum-free medium with or without VEGF was added and the arterial culture was incubated for 3 days.
# [12] = castrated rats treated with VEGF or AAV-VEGF (pooled)
# [13] = 50 ng/ml VEGF, 20 ng/ml BDNF, 2 days of incubation
substance,measurement,setting,value
VEGF,Peak sustained intracavernous pressure during electrostimulation of the cavernous nerves,"[1]; 2 μg VEGF intracavernous, Week 1",23.50 ± 2.38 cm H20
same,Peak sustained intracavernous pressure during electrostimulation of the cavernous nerves,"[1]; 2 μg VEGF intracavernous, Week 2",43.00 ± 8.37 cm H20
same,Peak sustained intracavernous pressure during electrostimulation of the cavernous nerves,"[1]; 2 μg VEGF intracavernous, Week 6",69.00 ± 8.83 cm H20
same,Peak sustained intracavernous pressure during electrostimulation of the cavernous nerves,"[1]; 4 μg VEGF intracavernous, Week 1",71.17 ± 16.89 cm H20
same,Peak sustained intracavernous pressure during electrostimulation of the cavernous nerves,"[1]; 4 μg VEGF intracavernous, Week 2",86.25 ± 8.18 cm H20
same,Peak sustained intracavernous pressure during electrostimulation of the cavernous nerves,"[1]; 4 μg VEGF intracavernous, Week 6",96.67 ± 13.50 cm H20
same,improvement in intracavernous pressure compared with the PBS-treated group,"[1]; 2-μg and 4-μg groups, week 6",statistically significant improvement
same,recovery of erectile function,"[1]; 4-μg group, weeks 1 and 2",moderate recovery
same,appearance of endothelium of sinusoids and capillaries,[2]; 2 and 6-week groups,endothelial cell hypertrophy and hyperplasia
same,appearance of intracavernosal smooth muscle cells,[2]; 2 and 6-week groups,most of the smooth muscle cells appeared normal
same,"mean diameter of the myelinated axons, dorsal nerve",[2]; week 6,6.19±2.38 μm
same,"mean diameter of the nonmyelinated axons, dorsal nerve",[2]; week 6,0.82±0.45 μm
same,"quantity of penile smooth muscle, qualitative",[3],returns to normal morphology
same,pixel count of alpha actin immunostaining (quantity of smooth muscle),[3]; proximal penile shaft,52990
same,endothelial cells lining capillaries and sinusoids,[4]; castrated rats,endothelial hypertrophy and hyperplasia
same,"mean diameter of non-myelinated axons, dorsal nerve",[4]; [12],0.96±0.33 μm
same,"mean diameter of the myelinated nerve, dorsal nerve",[4]; [12],2.36±0.92 μm
same,"mean thickness of myelin sheath, dorsal nerve",[4]; [12],0.93±0.44 μm
same,intracavernous smooth muscle morphology,"[4]; castrated rats, compared to castrated+Lac Z rats",arranged in clusters with minimal intercellular spaces
same,AchE staining intensity,[5]; [13],"8,470±199 IDV"
same,NADPH staining intensity,[5]; [13],"10,126±187 IDV"
same,FIBER LENGTH (average lengths of the growing fibers),[5]; 48 hours after culturing,89
same,"maximal intracavernous pressure (MICP), mean±SEM",[6],37.33±3.29 cm H2O
same,cell growth in artery-muscle co-culture,[7],encourage the growth of endothelial cells
same,effect on growth of VSMC,[8],did not stimulate growth
same,effect on migration of VSMC,[9],stimulated migration
same,maximal intracavernous pressure,[10],72.78±10.87 cm H2O
same,length of budding new blood vessels vs untreated culture,[11],significantly longer
